Measurements from patent publication US20040005537A1, “Method of identifying toxic agents using differential gene expression” (priority 2000, published 2004).

System: rat heart tissue
Test: GENECALLING differential gene expression analysis after dosing of serotonin modulating agents
Assay type: in vivo, Sprague Dawley rats
Procedure, shortened: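 Rats dosed with serotonin modulating agents, controls given sterile water or canola oil; tissue taken 24 h after the last dose. Total RNA converted to cDNA and profiled by GENECALLING differential expression analysis; fragments changed more than ±1.5-fold were selected.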

CNS(=O)(=O)Cc1ccc2[nH]cc(CCN(C)C)c2c1 [sumatriptan]
Effects on Transcription Level: Novel gene fragment, 524 bp, 86% SI to mouse F-box protein FBX6b [AF176526] (CARDIOTOX 1): +1.5 fold | Effects on Transcription Level: Novel gene fragment, 306 bp, 91% SI to mouse low density lipoprotein receptor related protein 4 [AB013874] (CARDIOTOX 2): −1.6 fold | Effects on Transcription Level: Novel gene fragment, 540 bp, 97% SI to mouse skeletal muscle alpha-actin [X03766] (CARDIOTOX 3): +2.4 fold | Effects on Transcription Level: Novel gene fragment, 80 bp (CARDIOTOX 4): −1.4 fold | Effects on Transcription Level: Novel gene fragment, 957 bp, 99% SI to kidney injury associated moleculer HW036 [V80591] (CARDIOTOX 5): −1.6 fold | Effects on Transcription Level: Novel gene fragment, 282 bp, 85% SI to human KIAA1515 protein [AB040948] (CARDIOTOX 6): −1.7 fold | Effects on Transcription Level: Novel gene fragment, 405 bp, 88% SI to human 2-oxoglutarate dehydrogenase [D10523] (CARDIOTOX 7): +1.5 fold | Effects on Transcription Level: UCP2 (CARDIOTOX 8, GenBank AB010743): −1.6 fold | Effects on Transcription Level: Plasma membrane Ca2 + ATPase-isoform 1 (CARDIOTOX 9, GenBank J03753): −1.6 fold | Effects on Transcription Level: Novel gene fragment, 242 bp, 97% SI to mouse HSP86 heat-shock protein [X16857] (CARDIOTOX 10): +1.4 fold | Effects on Transcription Level: Novel gene fragment, 280 bp, 65% SI to human TRF1-interacting, ankyrin-related ADP-ribose polymerase [AF082556] (CARDIOTOX 11): +1.4 fold | Effects on Transcription Level: Novel gene fragment, 348 bp, 88% SI to mouse Sec61 protein complex gamma subunit [U11027] (CARDIOTOX 12): +1.3 fold | Effects on Transcription Level: Novel gene fragment 553 bp, 93% SI to mouse Sid329 [AB024984] (CARDIOTOX 13): +1.4 fold | Effects on Transcription Level: Kruppel-like transcription factor (CARDIOTOX 14, GenBank AB020759): +1.3 fold | Effects on Transcription Level: Ribosomal protein L3 (CARDIOTOX 15, GenBank X62166): +1.4 fold | Effects on Transcription Level: Glucose-regulated protein (GRP) 75 (CARDIOTOX 16, GenBank S78556): +1.4 fold | Effects on Transcription Level: Immunoglobulin heavy chain binding protein (BiP) (CARDIOTOX 17, GenBank M14050): +1.4 fold | Effects on Transcription Level: Membrane-spannining proteoglycan NG2 (CARDIOTOX 18, GenBank X56541): −1.5 fold | Effects on Transcription Level: Novel gene fragment, 1294 bp, 96% SI to mouse Sui 1 (elF) homolog [AF129888] (CARDIOTOX 19): +1.6 fold | Effects on Transcription Level: Novel gene fragment, 723 bp, 85% SI to human translation initiation factor elF3 p40 subunit [U54559] (CARDIOTOX 20): +1.6 fold | Effects on Transcription Level: Novel gene fragment, 1324 bp, 76% SI to human flavoprotein subunit of complex II [D30648] (CARDIOTOX 21): +1.5 fold | Effects on Transcription Level: Novel gene fragment, 852 bp, 81% SI to human vacuolar proton-ATPase subunit M9.2 [Y15286] (CARDIOTOX 22): +1.5 fold | Effects on Transcription Level: Novel gene fragment, 178 bp, 91% SI to mouse myosin light chain-2 isoform MLC-2a [S70785] (CARDIOTOX 23): +1.4 fold | Effects on Transcription Level: Novel gene fragment, 167 bp, 90% SI to mouse Rab20 [X80332] (CARDIOTOX 24): +1.9 fold | Effects on Transcription Level: Novel gene fragment, 1070 bp, 80% SI to human muscle-specific protein [AF249873] (CARDIOTOX 25): +1.5 fold | Effects on Transcription Level: Novel gene fragment, 1143 bp, 82% SI to human sarcoma amplified sequence (SAS) [U01160] (CARDIOTOX 26): +1.7 fold | Effects on Transcription Level: Novel gene fragment, 74 bp,75% SI to human secreted protein [X30160] (from patent database)/[X97578] (from patent database)/potential cytokine) (CARDIOTOX 27): +1.5 fold | Effects on Transcription Level: Novel gene fragment, 408 bp, 90% SI to human CGI-07 protein [AF132941] (CARDIOTOX 28): +1.6 fold | Effects on Transcription Level: Novel gene fragment, 618 bp, 95% SI to rat progression related cDNA, ZNPE-120 3′ end partial sequence [patent database X90805] (CARDIOTOX 29): +1.5 fold | Effects on Transcription Level: Novel gene fragment, 717 bp (CARDIOTOX 30): +1.5 fold | Effects on Transcription Level: Novel gene fragment, 546 bp (CARDIOTOX 31): +1.8 fold | Effects on Transcription Level: Novel gene fragment, 920 bp, 91% SI to human HSPC061 [AF161546] (CARDIOTOX 32): +1.5 fold | Effects on Transcription Level: Novel gene fragment, 203 bp, 92% SI to rabbit sarcoplasmic reticulum glycoprotein [J04480] (CARDIOTOX 33): −1.7 fold | Effects on Transcription Level: Novel gene fragment, 178 bp, 68% SI to mouse IgG receptor (beta-Fc-gamma-RII)[M63159] (CARDIOTOX 34): +1.4 fold | Effects on Transcription Level: Ribosomal protein L6 (CARDIOTOX 35, GenBank X87107): +1.6 fold | Effects on Transcription Level: CAP2 protein (adenylyl cyclase-associated protein 2) (CARDIOTOX 36, GenBank U31935): +2.0 fold | Effects on Transcription Level: Alpha-platelet-derived growth factor receptor (CARDIOTOX 37, GenBank M63837): +1.6 fold | Effects on Transcription Level: Rab GD1 alpha protein (CARDIOTOX 38, GenBank X74402): −1.6 fold | Effects on Transcription Level: PKC-zeta-interacting protein (CARDIOTOX 39, GenBank Y08355): +1.6 fold | Effects on Transcription Level: ERK or MAP kinase (CARDIOTOX 40, GenBank X65198): +1.5 fold | Effects on Transcription Level: Peroxisomal multifunctional enzyme type II (CARDIOTOX 41, GenBank U37486): +1.5 fold | Effects on Transcription Level: HBP23 (heme-binding protein 23 kDa) (CARDIOTOX 42, GenBank D30035): +1.7 fold | Effects on Transcription Level: Caveolae-associated protein (CARDIOTOX 43, GenBank U90725): +3.1 fold | Effects on Transcription Level: Prenylated rab acceptor 1 (PRA1) (CARDIOTOX 44, GenBank AF025506): +1.5 fold | Effects on Transcription Level: Novel gene fragment, 337 bp, 88% SI to rabbit cardiac ryanodine receptor (RyR-2)[U50465] (CARDIOTOX 45): −1.5 fold | Effects on Transcription Level: Novel gene fragment, 81 bp, 85% SI to human titin [X90568] (CARDIOTOX 46): −2.2 fold | Effects on Transcription Level: Novel gene fragment, 428 bp, 86% SI to human titin [X90568] (CARDIOTOX 47): −2.0 fold | Effects on Transcription Level: Novel gene fragment, 374 bp, 88% SI to human titin [X90568] (CARDIOTOX 48): −2.3 fold | Effects on Transcription Level: Novel gene fragment, 428 bp, 85% SI to human titin [90568] (CARDIOTOX 49): −2.2 fold | Effects on Transcription Level: Novel gene fragment, 1216 bp, 93% SI to mouse mircotubule-associated protein (MAP) 1B protein [AF115776] (CARDIOTOX 50): 1 fold | Effects on Transcription Level: Novel gene fragment, 1115 bp, 83% SI to human KIAA0549 protein [AB011121] (CARDIOTOX 51): −2.1 fold | Effects on Transcription Level: Novel gene fragment, 153 bp (CARDIOTOX 52): −1.7 fold | Effects on Transcription Level: Novel gene fragment, 89 bp, 93% SI to human putative glialblastoma cell differentiation-related protein (GBDR1) [AF068195] (CARDIOTOX 53): +1.6 fold | Effects on Transcription Level: Rho-associated kinase beta (CARDIOTOX 54, GenBank U61266): −1.10 fold | Effects on Transcription Level: Adenylate kinase 3 (CARDIOTOX 55, GenBank D13062): +1.5 fold | Effects on Transcription Level: Amyloid beta-peptide binding protein (CARDIOTOX 56, GenBank AF049878): +1.5 fold | Effects on Transcription Level: Mitochondrial adenine nuleotide translocator (CARDIOTOX 57, GenBank D12771): +1.5 fold | Effects on Transcription Level: Novel gene fragment, 710 bp, 94% SI to mouse chromatin structural protein homolog Supt5 hp (Supt5 h)[U88539] (CARDIOTOX 58): +3.0 fold | Effects on Transcription Level: Novel gene fragment, 186 bp, 66% SI to human N-acetylglucosaminyltransferase 1 (GlcNAc-TI)[M55621] (CARDIOTOX 60): −1.8 fold | Effects on Transcription Level: Novel gene fragment, 238 bp, 95% SI to mouse MAP kinase-activated protein kinase 2 [X76850] (CARDIOTOX 61): −2.7 fold | Effects on Transcription Level: Novel gene fragment, 173 bp, 70% SI to G protein-coupled receptor kinase GRK4 [X97568] (CARDIOTOX 62): −6.11 fold | Effects on Transcription Level: Novel gene fragment, 133 bp, 77% SI to human apoptosis related protein hSARP3 [patent database: V19114] (CARDIOTOX 63): −3.2 fold | Effects on Transcription Level: Novel gene fragment, 477 bp, 98% SI to peroxisomal phytanoyl-CoA hydroxylase (PHYH) [AF121345] (CARDIOTOX 64): +5.1 fold | Effects on Transcription Level: Novel gene fragment, 413 bp, 95% SI to mouse dihydrolipoamide dehydrogenase (Dld) [U73445] (CARDIOTOX 65): +1.10 fold | Effects on Transcription Level: Novel gene fragment, 726 bp, 76% SI to human succinate dehydrogenase flavoprotein subunit (SDH) [L21936] (CARDIOTOX 66): −4.1 fold | Effects on Transcription Level: Novel gene fragment, 440 bp, 92% SI to mouse cytochrome c oxidase Vllc [X52940] (CARDIOTOX 67): +3.7 fold | Effects on Transcription Level: Novel gene fragment, 276 bp, 80% SI to human titin [X90568] (CARDIOTOX 68): −11.10 fold | Effects on Transcription Level: Novel gene fragment, 149 bp, 70% SI to human titin [X90568] (CARDIOTOX 69): −5.6 fold | Effects on Transcription Level: Novel gene fragment, 467 bp, 94% SI to mouse gelsolin [J04953] (CARDIOTOX 70): −3.2 fold | Effects on Transcription Level: Novel gene fragment, 535 bp, 90% SI to mouse slow/cardiac troponin C [M29793] (CARDIOTOX 71): −2.1 fold
